Source: ChEMBL document CHEMBL1909294, “Translating clinical findings into knowledge in drug safety evaluation--drug induced liver injury prediction system (DILIps)” (PLoS Comput Biol, 2011)

Assays:
Hepatotoxicity [1] = system: Hepatotoxicity;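 for DILI positive/negative: binary label assigned from drug-induced liver injury observed in pharmaceutical company records, forming the validation set for the DILIps prediction system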;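 for HepSE Combined Scores: combined hepatic side effect score as listed in the training data of the Drug Induced Liver Injury Prediction System (DILIps)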;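 for HepSE hepatic necrosis: score of hepatic side effects for hepatic necrosis, drawn from the training data of DILIps, a prediction system for drug-induced liver injury; call rule not given here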;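 for HepSE hepatomegaly: hepatic side effect score for hepatomegaly, taken from the training set of the DILIps drug-induced liver injury prediction system; call rule not given here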;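 for HepSE jaundice: Jaundice-related hepatic side-effect score drawn from the training data of the DILIps (drug-induced liver injury prediction system); call rule not given here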;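 for HepSE liver fatty: hepatic side effect score for fatty liver, taken from the DILIps training set for predicting drug-induced liver injury; call rule not given here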
Hepatotoxicity [2] = system: Hepatotoxicity; remark: listed apart in the source;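 for DILI positive/negative: binary label assigned from drug-induced liver injury observed in pharmaceutical company records, forming the validation set for the DILIps prediction system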;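 for HepSE Combined Scores: combined hepatic side effect score as listed in the training data of the Drug Induced Liver Injury Prediction System (DILIps)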;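 for HepSE hepatic necrosis: score of hepatic side effects for hepatic necrosis, drawn from the training data of DILIps, a prediction system for drug-induced liver injury; call rule not given here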;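 for HepSE hepatomegaly: hepatic side effect score for hepatomegaly, taken from the training set of the DILIps drug-induced liver injury prediction system; call rule not given here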;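 for HepSE jaundice: Jaundice-related hepatic side-effect score drawn from the training data of the DILIps (drug-induced liver injury prediction system); call rule not given here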;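 for HepSE liver fatty: hepatic side effect score for fatty liver, taken from the DILIps training set for predicting drug-induced liver injury; call rule not given here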
Hepatotoxicity [3] = system: Hepatotoxicity; remark: listed apart in the source;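 for DILI positive/negative: binary label assigned from drug-induced liver injury observed in pharmaceutical company records, forming the validation set for the DILIps prediction system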;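 for HepSE Combined Scores: combined hepatic side effect score as listed in the training data of the Drug Induced Liver Injury Prediction System (DILIps)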;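 for HepSE hepatic necrosis: score of hepatic side effects for hepatic necrosis, drawn from the training data of DILIps, a prediction system for drug-induced liver injury; call rule not given here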;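 for HepSE hepatomegaly: hepatic side effect score for hepatomegaly, taken from the training set of the DILIps drug-induced liver injury prediction system; call rule not given here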;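 for HepSE jaundice: Jaundice-related hepatic side-effect score drawn from the training data of the DILIps (drug-induced liver injury prediction system); call rule not given here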;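 for HepSE liver fatty: hepatic side effect score for fatty liver, taken from the DILIps training set for predicting drug-induced liver injury; call rule not given here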
Hepatotoxicity [4] = system: Hepatotoxicity; remark: listed apart in the source;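 for DILI positive/negative: binary label assigned from drug-induced liver injury observed in pharmaceutical company records, forming the validation set for the DILIps prediction system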;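 for HepSE Combined Scores: combined hepatic side effect score as listed in the training data of the Drug Induced Liver Injury Prediction System (DILIps)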;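 for HepSE hepatic necrosis: score of hepatic side effects for hepatic necrosis, drawn from the training data of DILIps, a prediction system for drug-induced liver injury; call rule not given here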;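 for HepSE hepatomegaly: hepatic side effect score for hepatomegaly, taken from the training set of the DILIps drug-induced liver injury prediction system; call rule not given here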;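 for HepSE jaundice: Jaundice-related hepatic side-effect score drawn from the training data of the DILIps (drug-induced liver injury prediction system); call rule not given here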
Hepatotoxicity [5] = system: Hepatotoxicity; remark: listed apart in the source
Hepatotoxicity [6] = system: Hepatotoxicity; remark: listed apart in the source
Hepatotoxicity [7] = system: Hepatotoxicity; remark: listed apart in the source
Hepatotoxicity [8] = system: Hepatotoxicity; remark: listed apart in the source
Hepatotoxicity [9] = system: Hepatotoxicity; remark: listed apart in the source
Hepatotoxicity [10] = system: Hepatotoxicity; remark: listed apart in the source
Hepatotoxicity [11] = system: Hepatotoxicity; remark: listed apart in the source
Hepatotoxicity [12] = system: Hepatotoxicity; remark: listed apart in the source
Hepatotoxicity [13] = system: Hepatotoxicity; remark: listed apart in the source
Hepatotoxicity [14] = system: Hepatotoxicity; remark: listed apart in the source
Hepatotoxicity [15] = system: Hepatotoxicity; remark: listed apart in the source

GALLIUM NITRATE HYDRATE
DILI positive/negative (Hepatotoxicity [1]): 0

C#C[C@]1(O)CC[C@H]2[C@@H]3CCc4cc(OC)ccc4[C@H]3CC[C@@]21C [MESTRANOL]
DILI positive/negative (Hepatotoxicity [1]): 1

O=C1NCN(c2ccccc2)C12CCN(CCCC(c1ccc(F)cc1)c1ccc(F)cc1)CC2
DILI positive/negative (Hepatotoxicity [1]): 1

COc1cc2c(c3oc(=O)c4c(c13)CCC4=O)[C@@H]1C=CO[C@@H]1O2 [AFLATOXIN]
DILI positive/negative (Hepatotoxicity [1]): 1

Cc1c(F)c(N2CCNC(C)C2)cc2c1c(=O)c(C(=O)O)cn2C1CC1 (stereo unspecified) [GREPAFLOXACIN]
DILI positive/negative (Hepatotoxicity [1]; Liver): 1

Nc1ccc(S(=O)(=O)NC(=O)c2ccccc2)cc1 [SULFABENZAMIDE]
DILI positive/negative (Hepatotoxicity [1]): 0

CC(C)COCC(CN(Cc1ccccc1)c1ccccc1)N1CCCC1.Cl.O (stereo unspecified) [BEPRIDIL HYDROCHLORIDE]
DILI positive/negative (Hepatotoxicity [1]): 1

CO[C@H]1C[C@H](O[C@H]2[C@H](C)[C@@H](O[C@@H]3O[C@H](C)C[C@H](N(C)C)[C@H]3OC(C)=O)[C@@H](C)C[C@@]3(CO3)C(=O)[C@H](C)[C@@H](OC(C)=O)[C@@H](C)[C@@H](C)OC(=O)[C@@H]2C)O[C@@H](C)[C@@H]1OC(C)=O [TROLEANDOMYCIN]
DILI positive/negative (Hepatotoxicity [1]): 1

N[C@@H](Cc1ccc(O)c(O)c1)C(=O)O [LEVODOPA]
DILI positive/negative (Hepatotoxicity [1]): 0

O=c1[nH]c(=O)n([C@H]2C[C@H](O)[C@@H](CO)O2)cc1F [FLOXURIDINE]
DILI positive/negative (Hepatotoxicity [1]): 1

COC(=O)Nc1nc2ccc(C(=O)c3cccs3)cc2[nH]1 [NOCODAZOLE]
DILI positive/negative (Hepatotoxicity [1]): 0

Oc1ncc(N(CCCl)CCCl)c(O)n1 [URACIL MUSTARD]
DILI positive/negative (Hepatotoxicity [1]; Liver): 1

O=C(O)CCc1nc(-c2ccccc2)c(-c2ccccc2)o1 [OXAPROZIN]
HepSE_jaundice (Hepatotoxicity [2]): 1 | HepSE_hepatomegaly (Hepatotoxicity [3]): 0 | HepSE_Combined Scores (Hepatotoxicity [4]): 3 | HepSE_hepatic necrosis (Hepatotoxicity [5]): 0 | HepSE_hepatitis (Hepatotoxicity [6]): 1 | HepSE_bilirubinemia (Hepatotoxicity [7]): 0 | HepSE_liver fatty (Hepatotoxicity [8]): 0 | HepSE_liver disease (Hepatotoxicity [9]): 0 | HepSE_cirrhosis (Hepatotoxicity [10]): 0 | HepSE_elevated liver function tests (Hepatotoxicity [11]): 0 | HepSE_hepatic failure (Hepatotoxicity [12]): 1 | HepSE_cholecystitis (Hepatotoxicity [13]): 0 | HepSE_liver function tests abnormal (Hepatotoxicity [14]): 0 | HepSE_cholelithiasis (Hepatotoxicity [15]): 0

MANGAFODIPIR
HepSE_jaundice (Hepatotoxicity [2]): 0 | HepSE_hepatomegaly (Hepatotoxicity [3]): 0 | HepSE_Combined Scores (Hepatotoxicity [4]): 0 | HepSE_hepatic necrosis (Hepatotoxicity [5]): 0 | HepSE_hepatitis (Hepatotoxicity [6]): 0 | HepSE_bilirubinemia (Hepatotoxicity [7]): 0 | HepSE_liver fatty (Hepatotoxicity [8]): 0 | HepSE_liver disease (Hepatotoxicity [9]): 0 | HepSE_cirrhosis (Hepatotoxicity [10]): 0 | HepSE_elevated liver function tests (Hepatotoxicity [11]): 0 | HepSE_hepatic failure (Hepatotoxicity [12]): 0 | HepSE_cholecystitis (Hepatotoxicity [13]): 0 | HepSE_liver function tests abnormal (Hepatotoxicity [14]): 0 | HepSE_cholelithiasis (Hepatotoxicity [15]): 0

CNCCc1ccccn1 [BETAHISTINE]
HepSE_jaundice (Hepatotoxicity [2]): 0 | HepSE_hepatomegaly (Hepatotoxicity [3]): 0 | HepSE_Combined Scores (Hepatotoxicity [4]): 0 | HepSE_hepatic necrosis (Hepatotoxicity [5]): 0 | HepSE_hepatitis (Hepatotoxicity [6]): 0 | HepSE_bilirubinemia (Hepatotoxicity [7]): 0 | HepSE_liver fatty (Hepatotoxicity [8]): 0 | HepSE_liver disease (Hepatotoxicity [9]): 0 | HepSE_cirrhosis (Hepatotoxicity [10]): 0 | HepSE_elevated liver function tests (Hepatotoxicity [11]): 0 | HepSE_hepatic failure (Hepatotoxicity [12]): 0 | HepSE_cholecystitis (Hepatotoxicity [13]): 0 | HepSE_liver function tests abnormal (Hepatotoxicity [14]): 0 | HepSE_cholelithiasis (Hepatotoxicity [15]): 0

C[C@]12CC[C@H]3[C@@H](CCC4=CC(=O)CC[C@@]43C)[C@@H]1CC[C@@H]2O [TESTOSTERONE]
HepSE_jaundice (Hepatotoxicity [2]): 1 | HepSE_hepatomegaly (Hepatotoxicity [3]): 0 | HepSE_Combined Scores (Hepatotoxicity [4]): 2 | HepSE_hepatic necrosis (Hepatotoxicity [5]): 0 | HepSE_hepatitis (Hepatotoxicity [6]): 0 | HepSE_bilirubinemia (Hepatotoxicity [7]): 0 | HepSE_liver fatty (Hepatotoxicity [8]): 0 | HepSE_liver disease (Hepatotoxicity [9]): 0 | HepSE_cirrhosis (Hepatotoxicity [10]): 0 | HepSE_elevated liver function tests (Hepatotoxicity [11]): 0 | HepSE_hepatic failure (Hepatotoxicity [12]): 0 | HepSE_cholecystitis (Hepatotoxicity [13]): 0 | HepSE_liver function tests abnormal (Hepatotoxicity [14]): 1 | HepSE_cholelithiasis (Hepatotoxicity [15]): 0

C[C@H](O)[C@H](O)[C@H]1CNc2nc(N)[nH]c(=O)c2N1 [SAPROPTERIN]
HepSE_jaundice (Hepatotoxicity [2]): 0 | HepSE_hepatomegaly (Hepatotoxicity [3]): 0 | HepSE_Combined Scores (Hepatotoxicity [4]): 0 | HepSE_hepatic necrosis (Hepatotoxicity [5]): 0 | HepSE_hepatitis (Hepatotoxicity [6]): 0 | HepSE_bilirubinemia (Hepatotoxicity [7]): 0 | HepSE_liver fatty (Hepatotoxicity [8]): 0 | HepSE_liver disease (Hepatotoxicity [9]): 0 | HepSE_cirrhosis (Hepatotoxicity [10]): 0 | HepSE_elevated liver function tests (Hepatotoxicity [11]): 0 | HepSE_hepatic failure (Hepatotoxicity [12]): 0 | HepSE_cholecystitis (Hepatotoxicity [13]): 0 | HepSE_liver function tests abnormal (Hepatotoxicity [14]): 0 | HepSE_cholelithiasis (Hepatotoxicity [15]): 0

c1ccc(CC2=NCCN2)cc1 [TOLAZOLINE]
HepSE_jaundice (Hepatotoxicity [2]): 0 | HepSE_hepatomegaly (Hepatotoxicity [3]): 0 | HepSE_Combined Scores (Hepatotoxicity [4]): 1 | HepSE_hepatic necrosis (Hepatotoxicity [5]): 0 | HepSE_hepatitis (Hepatotoxicity [6]): 1 | HepSE_bilirubinemia (Hepatotoxicity [7]): 0 | HepSE_liver fatty (Hepatotoxicity [8]): 0 | HepSE_liver disease (Hepatotoxicity [9]): 0 | HepSE_cirrhosis (Hepatotoxicity [10]): 0 | HepSE_elevated liver function tests (Hepatotoxicity [11]): 0 | HepSE_hepatic failure (Hepatotoxicity [12]): 0 | HepSE_cholecystitis (Hepatotoxicity [13]): 0 | HepSE_liver function tests abnormal (Hepatotoxicity [14]): 0 | HepSE_cholelithiasis (Hepatotoxicity [15]): 0

C=C(c1ccc(C(=O)O)cc1)c1cc2c(cc1C)C(C)(C)CCC2(C)C [BEXAROTENE]
HepSE_jaundice (Hepatotoxicity [2]): 0 | HepSE_hepatomegaly (Hepatotoxicity [3]): 0 | HepSE_Combined Scores (Hepatotoxicity [4]): 2 | HepSE_hepatic necrosis (Hepatotoxicity [5]): 0 | HepSE_hepatitis (Hepatotoxicity [6]): 0 | HepSE_bilirubinemia (Hepatotoxicity [7]): 1 | HepSE_liver fatty (Hepatotoxicity [8]): 0 | HepSE_liver disease (Hepatotoxicity [9]): 0 | HepSE_cirrhosis (Hepatotoxicity [10]): 0 | HepSE_elevated liver function tests (Hepatotoxicity [11]): 0 | HepSE_hepatic failure (Hepatotoxicity [12]): 1 | HepSE_cholecystitis (Hepatotoxicity [13]): 0 | HepSE_liver function tests abnormal (Hepatotoxicity [14]): 0 | HepSE_cholelithiasis (Hepatotoxicity [15]): 0

Clc1ccc(C(Cn2ccnc2)OCc2csc3c(Cl)cccc23)c(Cl)c1 (stereo unspecified) [SERTACONAZOLE]
HepSE_jaundice (Hepatotoxicity [2]): 0 | HepSE_hepatomegaly (Hepatotoxicity [3]): 0 | HepSE_Combined Scores (Hepatotoxicity [4]): 0 | HepSE_hepatic necrosis (Hepatotoxicity [5]): 0 | HepSE_hepatitis (Hepatotoxicity [6]): 0 | HepSE_bilirubinemia (Hepatotoxicity [7]): 0 | HepSE_liver fatty (Hepatotoxicity [8]): 0 | HepSE_liver disease (Hepatotoxicity [9]): 0 | HepSE_cirrhosis (Hepatotoxicity [10]): 0 | HepSE_elevated liver function tests (Hepatotoxicity [11]): 0 | HepSE_hepatic failure (Hepatotoxicity [12]): 0 | HepSE_cholecystitis (Hepatotoxicity [13]): 0 | HepSE_liver function tests abnormal (Hepatotoxicity [14]): 0 | HepSE_cholelithiasis (Hepatotoxicity [15]): 0

CC(C)(C)NC[C@H](O)COc1nsnc1N1CCOCC1 [TIMOLOL]
HepSE_jaundice (Hepatotoxicity [2]): 0 | HepSE_hepatomegaly (Hepatotoxicity [3]): 1 | HepSE_Combined Scores (Hepatotoxicity [4]): 1 | HepSE_hepatic necrosis (Hepatotoxicity [5]): 0 | HepSE_hepatitis (Hepatotoxicity [6]): 0 | HepSE_bilirubinemia (Hepatotoxicity [7]): 0 | HepSE_liver fatty (Hepatotoxicity [8]): 0 | HepSE_liver disease (Hepatotoxicity [9]): 0 | HepSE_cirrhosis (Hepatotoxicity [10]): 0 | HepSE_elevated liver function tests (Hepatotoxicity [11]): 0 | HepSE_hepatic failure (Hepatotoxicity [12]): 0 | HepSE_cholecystitis (Hepatotoxicity [13]): 0 | HepSE_liver function tests abnormal (Hepatotoxicity [14]): 0 | HepSE_cholelithiasis (Hepatotoxicity [15]): 0

CCCCC[C@H](O)/C=C/[C@H]1[C@H](O)CC(=O)[C@@H]1C/C=C\CCCC(=O)O [DINOPROSTONE]
HepSE_jaundice (Hepatotoxicity [2]): 0 | HepSE_hepatomegaly (Hepatotoxicity [3]): 0 | HepSE_Combined Scores (Hepatotoxicity [4]): 0 | HepSE_hepatic necrosis (Hepatotoxicity [5]): 0 | HepSE_hepatitis (Hepatotoxicity [6]): 0 | HepSE_bilirubinemia (Hepatotoxicity [7]): 0 | HepSE_liver fatty (Hepatotoxicity [8]): 0 | HepSE_liver disease (Hepatotoxicity [9]): 0 | HepSE_cirrhosis (Hepatotoxicity [10]): 0 | HepSE_elevated liver function tests (Hepatotoxicity [11]): 0 | HepSE_hepatic failure (Hepatotoxicity [12]): 0 | HepSE_cholecystitis (Hepatotoxicity [13]): 0 | HepSE_liver function tests abnormal (Hepatotoxicity [14]): 0 | HepSE_cholelithiasis (Hepatotoxicity [15]): 0

Cc1cccc(CN2CCN(C(c3ccccc3)c3ccc(Cl)cc3)CC2)c1 (stereo unspecified) [MECLIZINE]
HepSE_jaundice (Hepatotoxicity [2]): 0 | HepSE_hepatomegaly (Hepatotoxicity [3]): 0 | HepSE_Combined Scores (Hepatotoxicity [4]): 0 | HepSE_hepatic necrosis (Hepatotoxicity [5]): 0 | HepSE_hepatitis (Hepatotoxicity [6]): 0 | HepSE_bilirubinemia (Hepatotoxicity [7]): 0 | HepSE_liver fatty (Hepatotoxicity [8]): 0 | HepSE_liver disease (Hepatotoxicity [9]): 0 | HepSE_cirrhosis (Hepatotoxicity [10]): 0 | HepSE_elevated liver function tests (Hepatotoxicity [11]): 0 | HepSE_hepatic failure (Hepatotoxicity [12]): 0 | HepSE_cholecystitis (Hepatotoxicity [13]): 0 | HepSE_liver function tests abnormal (Hepatotoxicity [14]): 0 | HepSE_cholelithiasis (Hepatotoxicity [15]): 0
